Experimental findings from patent publication US8367584B2, “Naphthalene isoxazoline compounds for control of invertebrate pests” (E.I. du Pont de Nemours and Company, priority 2007, dated 2013) are described below.

Each structure is given as a SMILES string.

Holding throughout (type): in vivo
Experiment [1] concerns potato leafhopper (Empoasca fabae). Briefly: Test C: control of potato leafhopper through contact and/or systemic means on Soleil bean plant. The following applies: 144 h, sprayed at 250 ppm, adults on Soleil bean plant, held 6 days at 19-21° C., three replicates, read-out: control efficacy: mortality. As to the method:
(§1) Test compounds were formulated using a solution containing 10% acetone, 90% water and 300 ppm X^77™ Spreader Lo-Foam Formula non-ionic surfactant containing alkylarylpolyoxyethylene, free fatty acids, glycols and isopropanol (Loveland Industries, Inc. Greeley, Colo., USA). The formulated compounds were applied in 1 mL of liquid through a SUJ2 atomizer nozzle with 1/8 JJ custom body (Spraying Systems Co. Wheaton, Ill., USA) positioned 1.27 cm (0.5 inches) above the top of each test unit. All experimental compounds in this test were sprayed at 50 ppm, and the test was replicated three times. After spraying of the formulated test compound, each test unit was allowed to dry for 1 h and then a black, screened cap was placed on top. The test units were held for 6 days in a growth chamber at 25° C. and 70% relative humidity. Plant feeding damage was then visually assessed based on foliage consumed and a pest mortality rating was also counted and calculated for each test unit.
For evaluating control of potato leafhopper (Empoasca fabae) through contact and/or systemic means, the test unit consisted of a small open container with a 5-6-day-old Soleil bean plant (primary leaves emerged) inside. White sand was added to the top of the soil and one of the primary leaves was excised prior to application. Test compounds were formulated and sprayed as described for Test A. All experimental compounds in these tests were sprayed at 250 ppm, and the test was replicated three times. After spraying, the test units were allowed to dry for 1 hour before they were post-infested with 5 potato leafhoppers (18-21-day-old adults). A black, screened cap was placed on the top of the cylinder. The test units were held for 6 days in a growth chamber at 19-21° C. and 50-70% relative humidity. The control efficacy of each test unit was then visually assessed by the insect mortality.

Experiment [2] relates to diamondback moth (Plutella xylostella). The experiment in a line: Test A: control of diamondback moth on radish plant, foliar spray. The conditions noted are these: sprayed at 50 ppm; neonate larvae on radish plant; held 6 days at 25° C.; three replicates.
Text: For evaluating control of diamondback moth (Plutella xylostella), the test unit consisted of a small open container with a 12-14-day-old radish plant inside. This was pre-infested with about 50 neonate larvae that were dispensed into the test unit via corn-cob grits using a bazooka inoculator. The larvae moved onto the test plant after being dispensed into the test unit.
as §1

Experiment [3] relates to fall armyworm (Spodoptera frugiperda). Briefly: Test B: control of fall armyworm on corn (maize) plant, foliar spray. The following applies: sprayed at 50 ppm; 1-day-old larvae on corn (maize) plant; three replicates. As to the method:
as §1
For evaluating control of fall armyworm (Spodoptera frugiperda), the test unit consisted of a small open container with a 4-5-day-old corn (maize) plant inside. This was pre-infested (using a core sampler) with 10-15 1-day-old larvae on a piece of insect diet. Test compounds were formulated and sprayed at 50 ppm as described for Test A, and the test was replicated three times. After spraying, the test units were maintained in a growth chamber and then the control efficacy was rated for each test unit as described for Test A.

Experiment [4] has as its system green peach aphid (Myzus persicae). Briefly: Test E: control of green peach aphid through contact and/or systemic means on radish plant. The following applies: 144 h, sprayed at 250 ppm, aphids on radish plant, held 6 days at 19-21° C., three replicates, read-out: control efficacy: mortality. Here is the method: Test compounds were formulated using a solution containing 10% acetone, 90% water and 300 ppm X^77™ Spreader Lo-Foam Formula non-ionic surfactant containing alkylarylpolyoxyethylene, free fatty acids, glycols and isopropanol (Loveland Industries, Inc. Greeley, Colo., USA). The formulated compounds were applied in 1 mL of liquid through a SUJ2 atomizer nozzle with 1/8 JJ custom body (Spraying Systems Co. Wheaton, Ill., USA) positioned 1.27 cm (0.5 inches) above the top of each test unit. All experimental compounds in this test were sprayed at 50 ppm, and the test was replicated three times. After spraying of the formulated test compound, each test unit was allowed to dry for 1 h and then a black, screened cap was placed on top. The test units were held for 6 days in a growth chamber at 25° C. and 70% relative humidity. Plant feeding damage was then visually assessed based on foliage consumed and a pest mortality rating was also counted and calculated for each test unit. […]
Test compounds were formulated and sprayed as described for Test A. All experimental compounds in these tests were sprayed at 250 ppm, and the test was replicated three times. […] Each test unit was then visually assessed for insect mortality.

Experiment [5] concerns silverleaf whitefly (Bemisia tabaci). Briefly: Test F: control of silverleaf whitefly on cotton plant. The following applies: 144 h, sprayed at 250 ppm, 2nd and 3rd instar nymphs on cotton plant, held 6 days, three replicates, read-out: control efficacy: mortality. As to the method: For evaluating control of silverleaf whitefly (Bemisia tabaci), the test unit consisted of a 14-21-day-old cotton plant grown in Redi-earth® media (Scotts Co.) with at least two true leaves infested with 2nd and 3rd instar nymphs on the underside of the leaves.
Test compounds were formulated in no more than 2 mL of acetone and then diluted with water to 25-30 mL. The formulated compounds were applied using a flat fan air-assisted nozzle (Spraying Systems 122440) at 10 psi (69 kPa). Plants were sprayed to run-off on a turntable sprayer (patent publication EP-1110617-A1). All experimental compounds in this screen were sprayed at 250 ppm, and the test was replicated three times. After spraying of the test compound, the test units were held for 6 days in a growth chamber at 50-60% relative humidity and 28° C. daytime and 24° C. nighttime temperature. Then the leaves were removed and then dead and live nymphs were counted to calculate percent mortality.

The subject of experiment [6] is western flower thrip (Frankliniella occidentalis). Briefly: Test D: control of western flower thrip through contact and/or systemic means on Soleil bean plant. The conditions noted are these: sprayed at 250 ppm; adult thrips on Soleil bean plant; held 6 days at 25° C.; three replicates. As to the method: as §1
For evaluating control of the western flower thrip (Frankliniella occidentalis) through contact and/or systemic means, the test unit consisted of a small open container with a 5-7-day-old Soleil Bean plant inside. […] A mortality rating was assessed along with a plant damage rating for each test unit.

`O=C(NCc1ccc(C2=NOC(c3cc(Cl)cc(Cl)c3)(C(F)(F)F)C2)c2ccccc12)C1CC1` (stereo not shown) [Compound 1, N-[[4-[5-(3,5-dichlorophenyl)-4,5-dihydro-5-(trifluoromethyl)-3-isoxazolyl]-1-naphthalenyl]methyl]cyclopropanecarboxamide]: in experiment [1], the mortality at 250 ppm is at least 80%. Also, the “control efficacy (20% or less feeding damage or 80% or more mortality)” value in experiment [2] and in experiment [3] was “very good to excellent levels of control efficacy” in each case.
As to `CC(C)C(=O)NCc1ccc(C2=NOC(c3cc(Cl)cc(Cl)c3)(C(F)(F)F)C2)c2ccccc12` (stereo not shown) [Compound 2], the mortality at 250 ppm in experiment [1], in experiment [4] and in experiment [5] was at least 80% each time. In addition, the “control efficacy (20% or less feeding damage or 80% or more mortality)” value in experiment [2] and in experiment [3] was “very good to excellent levels of control efficacy” each time.
Consider `N#CC(NC(=O)C1CC1)c1ccc(C2=NOC(c3cc(Cl)cc(Cl)c3)(C(F)(F)F)C2)c2ccccc12` (stereo not shown) [Compound 3], for which the “control efficacy (20% or less feeding damage or 80% or more mortality)” value in experiment [2] and in experiment [6] was “very good to excellent levels of control efficacy” each time.
As for `CC(C)C(=O)NC(C)c1ccc(C2=NOC(c3cc(C(F)(F)F)cc(C(F)(F)F)c3)(C(F)(F)F)C2)c2ccccc12` (stereo not shown) [Compound 4], the “control efficacy (20% or less feeding damage or 80% or more mortality)” value in experiment [2] is recorded as “very good to excellent levels of control efficacy”.
As for `CC(C)C(=O)NCc1ccc(C2=NOC(c3cc(Cl)cc(C(F)(F)F)c3)(C(F)(F)F)C2)c2ccccc12` (stereo not shown) [Compound 5], the mortality at 250 ppm in experiment [1], in experiment [4] and in experiment [5] was at least 80% each time. For the same compound, the “control efficacy (20% or less feeding damage or 80% or more mortality)” value in experiment [2] and in experiment [3] was “very good to excellent levels of control efficacy” in each case.
As for `O=C(NCc1ccc(C2=NOC(c3cc(Cl)cc(C(F)(F)F)c3)(C(F)(F)F)C2)c2ccccc12)C1CC1` (stereo not shown) [Compound 6], the mortality at 250 ppm in experiment [1] was at least 80%. For the same compound, the “control efficacy (20% or less feeding damage or 80% or more mortality)” value in experiment [2] and in experiment [3] was “very good to excellent levels of control efficacy” in each case.
